Test results taken from publication PMC8962522, “Direct interaction of TrkA/CD44v3 is essential for NGF-promoted aggressiveness of breast cancer cells” (Journal of Experimental & Clinical Cancer Research : CR, 2022).

Assays:
[1] = system: TrkA-His tagged extracellular domain protein (Ala 34-Gly423); test: MST binding of CD44v3 mimetic peptides to TrkA; details: TrkA-His 200 nM labelled with RED-Tris-NTA, PBS-T
Method: MST was conducted using an NT.115 A Pico MST instrument (Nano Temper Technologies GmbH) equipped with red and blue filter sets. The TrkA-His tagged extracellular domain protein (Ala 34-Gly423) (9966-TK-050; R&D Systems, United Kingdom), diluted to 200 nM in PBS-T buffer (supplied by the vendor), was labeled using a Monolith His-Tag Labeling Kit with RED-Tris-NTA (Nano Temper). The RED-Tris-NTA dye was diluted in PBS-T to 100 nM. The mix was incubated at RT in the dark for 30 min. Next, an extract expressing CD44v3-labeled protein (CD44v3-His) and ligand and/or TrkA was mixed at a 1:1 ratio and incubated at RT in the dark for 15 min. For the binding check, peptides and TrkA-His were used. Capillaries were filled individually and loaded into the instrument. The data were acquired using high MST power and 100% LED. The data were analyzed using MO Control Software (Nano Temper).
Fig. 2 The C-terminal region of CD44v3 and the His112 residue of TrkA are involved in the CD44v3/TrkA interaction. TrkA/CD44v3 complex association was detected by the proximity ligation assay (PLA) in wild-type TrkA- or TrkA_H112A- and CD44v3-expressing COS-7 cells. Proximity ligation assays were performed after 0, 5 and 30 min of NGF treatment (100 ng/ml). Representative images of signals detected by PLA (A) and their quantification (B). Sequence of CD44 exon variant 3 and deletion mutant Δ3 or Δ4 (C). TrkA/CD44v3 complex association was detected by PLA in wild-type TrkA and CD44v3 wild type or CD44v3 deleted mutant Δ3 or Δ4 expressing COS-7 (D, E). Sequence of CD44v3 mimetic peptides (F) and structure (G). TrkA binding to CD44v3 mimetic peptides by microscale thermophoresis (H) and effects of CD44v3 mimetic peptides 3 (RDRHLSFSGSG) and 4 ([…]) on TrkA/CD44v3 complex formation (I, J). Quantification of PLA was performed using ImageJ software (30 fields per condition of three different experiments). Statistical analyses were performed using one-way ANOVA followed by Bonferroni’s posttest.
To block the TrkA-CD44v3 association, 4 mimetic peptides of CD44v3 were designed corresponding to zone 1 [(K) STSSNTISAG], zone 2 (WEPNEENEDE), zone 3 (RDRHLSFSGSG) and zone 4 (IDDDEDFISST) (Fig. 2F & G). The binding capacities of the CD44v3 mimetic peptides to TrkA were then measured by MST (Fig. 2H). […] To confirm mimetic peptide 4 binding, we assessed its ability to bind TrkA using nanoscale differential scanning fluorimetry (nanoDSF; Supplementary Fig. 6A & B).

[2] = system: TrkA/CD44 complex in COS-7 cells transfected with TrkA and CD44s or CD44v6; test: PLA TrkA/CD44s or TrkA/CD44v6 complex formation in COS-7 cells; type: cell-based, African green monkey (COS-7 cells); details: NGF 100 ng/ml, 0, 5 or 30 min
Method: Cells (10,000 cells per well) were grown on acid-washed eight-well glass slides (Thermo Scientific) in the appropriate medium supplemented with 10% FBS for 24 h. After NGF treatment, paraformaldehyde (PAF)-fixed cells were incubated with 4% bovine serum albumin (BSA) or 5% FBS (for 1 h at 20 °C), followed by overnight incubation with primary antibodies (rabbit anti-TrkA or rabbit anti-IgG + mouse anti-pan-CD44; mouse anti-CD44v3; mouse anti-CD44v6; mouse anti-IgG2a; mouse anti-IgG2b; or mouse anti-IgG1). PLA was performed following the manufacturer’s instructions in the assay kit (Duolink PLA; Sigma–Aldrich). To obtain the correct representation of the PLA signal for each condition, 30 fields per condition were observed using a fluorescence microscope (Eclipse TiU; Nikon, Japan). The PLA signals (red dots) were automatically quantified using ImageJ software (with an in-house-developed plug-in). […]
Supplementary file 13046_2022_2314_MOESM3_ESM.pdf: Additional file 3: Supplementary Figure 1. […] The expression of all CD44 isoforms (A), CD44 variant 3 (B), CD44 variant 6 (C) and TrkA ([…]; D) was evaluated by RT–qPCR (normalized using PUM-1). No expression of CD44, CD44 variants [3 or 6] or TrkA was detected in COS-7 cells (A-D) compared with that in cells transfected with the expression plasmid carrying each protein. […]

Substance	binding to TrkA by MST (in words) [1]	effect on TrkA/CD44s or TrkA/CD44v6 complex formation (PLA) in COS-7 cells [2]
IDDDEDFISST [Peptide 4, mimetic peptide 4 (…) corresponding to the C-terminal region of CD44v3]	could bind TrkA	
NGF: recombinant human β-NGF (Alomone Labs, Israel)		Neither wild-type COS-7 cells nor COS-7 cells transfected with TrkA and the CD44s or CD44v6 isoform showed the formation of the dynamic TrkA/CD44 complex in PLA
